Values of other authors in article PMC9366781 (ACS Omega, 2022).
Like-named read-outs stand apart in the source and are kept apart here.

System: EGFR

Substance: Tyr-His-Trp-Tyr-Gly-Tyr-Thr-Pro-Gln-Asn-Val-Ile [GE11]
- affinity to the EGFR (different EGFR-positive cell lines (among these A431, MDA-MB-468, U87MG)): more than 1 mM

Substance: hEGF: endogenous EGFR ligand human epidermal growth factor, internal reference standard
- affinity to the EGFR (same study as GE11 monomer): 5.1 ± 0.9 nM
